{"source": "patent US20240208964A1", "about": "“PYRIDOPYRIMIDINES AND METHODS OF THEIR USE” (PYRIDOPYRIMIDINES AND METHODS OF THEIR USE, priority 2020, published 2024)", "key": {"FAB1 TDP-43 yeast strain": {"tested_on": "FAB1 TDP-43 yeast strain", "assay": "Propidium iodide viability assay in FAB1 TDP-43 control yeast strain", "format": "cell-based", "settings": "for FAB1 TDP-43 (active/inactive): FAB1 TDP-43 yeast model", "from_the_text": "(§1) Generation of TDP-43 yeast model expressing human PIKfyve. Human PIKFYVE (“entry clone”) was cloned into pAG416GPDccdB (“destination vector”) according to standard Gateway cloning protocols (Invitrogen, Life Technologies). The resulting pAG416GPD-PIKFYVE plasmids were amplified in E. coli and plasmid identity confirmed by restriction digest and Sanger sequencing. Lithium acetate/polyethylene glycol-based transformation was used to introduce the above PIKFYVE plasmid into a BY4741 yeast strain auxotrophic for the ura3 gene and deleted for two transcription factors that regulate the xenobiotic efflux pumps, a major efflux pump, and FAB1, the yeast ortholog of PIKFYVE (MATa, snq2::KILeu2; pdr3::Klura3;pdrl::NATMX; fab1::G418^R, his3;leu2;ura3;met15;LYS2+) (FIG. 2). Transformed yeast were plated on solid agar plates with complete synthetic media lacking uracil (CSM-ura) and containing 2% glucose. Individual colonies harboring the control or PIKFYVE TDP-43 plasmids were recovered. A plasmid containing wild-type TDP-43 under the transcriptional control of the GAL1 promoter and containing the hygromycin-resistance gene as a selectable marker was transformed into the fab1::G418^R pAG416GPD-PIKFYVE yeast strain (FIG. 1). Transformed yeast were plated on CSM-ura containing 2% glucose and 200 μg/mL […] after overnight recovery in media lacking antibiotic. Multiple independent isolates were further evaluated for cytotoxicity and TDP-43 expression levels.\n(§2) Viability Assay. A control yeast strain with the wild-type yeast FAB1 gene and TDP-43 (“FAB1 TDP-43”, carries empty pAG416 plasmid), and the “PIKFYVE TDP-43” yeast strain, were assessed for toxicity using a propidium iodide viability assay. Both yeast strains were transferred from solid CSM-ura/2% glucose agar plates into 3 mL of liquid CSM-ura/2% glucose media for 6-8 hours at 30° C. with aeration. Yeast cultures were then diluted to an optical density at 600 nm wavelength (OD600) of 0.005 in 3 mL of CSM-ura/2% raffinose and grown overnight at 30° C. with aeration to an OD600 of 0.3-0.8. Log-phase overnight cultures were diluted to OD600 of 0.005 in CSM-ura containing either 2% raffinose or galactose and 150 μL dispensed into each well of a flat bottom 96-well plates. Compounds formulated in 100% dimethyl sulfoxide (DMSO) were serially diluted in DMSO and 1.5 μL diluted compound transferred to the 96-well plates using a multichannel pipet. Wells containing DMSO alone were also evaluated as controls for compound effects. Tested concentrations ranged from 15 μM to 0.11 μM. Cultures were immediately mixed to ensure compound distribution and covered plates incubated at 30° C. for 24 hours in a stationary, humified incubator.\n(§3) Upon the completion of incubation, cultures were assayed for viability using propidium iodide (PI) to stain for dead/dying cells. A working solution of PI was made where, for each plate, 1 μL of 10 mM PI was added to 10 mL of CSM-ura (raffinose or galactose). The final PI solution (50 μL/well) was dispensed into each well of a new round bottom 96-well plate. The overnight 96-well assay plate was then mixed with a multichannel pipet and 50 μL transferred to the PI-containing plate. This plate was then incubated for 30 minutes at 30° C. in the dark. A benchtop flow cytometer (Miltenyi MACSquant) was then used to assess red fluorescence (B2 channel), forward scatter, and side scatter (with following settings: gentle mix, high flow rate, fast measurement, 10,000 events). Intensity histograms were then gated for “PI-positive” or “PI-negative” using the raffinose and galactose cultures treated with DMSO as controls. The DMSO controls for raffinose or galactose-containing cultures were used to determine the window of increased cell death and this difference set to 100. All compounds were similarly gated and then compared to this maximal window to establish the percent reduction in PI-positive cells."}, "[1]": {"tested_on": "PIKFYVE TDP-43 yeast strain", "assay": "Propidium iodide viability assay in PIKFYVE TDP-43 yeast strain", "format": "cell-based", "settings": "for PIKfyve TDP-43 (active/inactive): PIKFYVE TDP-43 yeast model", "from_the_text": "as §1, §2, §3"}, "[2]": {"molecular_target": "PIKfyve (PIKFYVE-NanoLuc fusion in HEK293 cells) (Homo sapiens (Human), UniProt Q9Y2I7)", "sequence (Q9Y2I7 whole entry, the tested form may be a part)": "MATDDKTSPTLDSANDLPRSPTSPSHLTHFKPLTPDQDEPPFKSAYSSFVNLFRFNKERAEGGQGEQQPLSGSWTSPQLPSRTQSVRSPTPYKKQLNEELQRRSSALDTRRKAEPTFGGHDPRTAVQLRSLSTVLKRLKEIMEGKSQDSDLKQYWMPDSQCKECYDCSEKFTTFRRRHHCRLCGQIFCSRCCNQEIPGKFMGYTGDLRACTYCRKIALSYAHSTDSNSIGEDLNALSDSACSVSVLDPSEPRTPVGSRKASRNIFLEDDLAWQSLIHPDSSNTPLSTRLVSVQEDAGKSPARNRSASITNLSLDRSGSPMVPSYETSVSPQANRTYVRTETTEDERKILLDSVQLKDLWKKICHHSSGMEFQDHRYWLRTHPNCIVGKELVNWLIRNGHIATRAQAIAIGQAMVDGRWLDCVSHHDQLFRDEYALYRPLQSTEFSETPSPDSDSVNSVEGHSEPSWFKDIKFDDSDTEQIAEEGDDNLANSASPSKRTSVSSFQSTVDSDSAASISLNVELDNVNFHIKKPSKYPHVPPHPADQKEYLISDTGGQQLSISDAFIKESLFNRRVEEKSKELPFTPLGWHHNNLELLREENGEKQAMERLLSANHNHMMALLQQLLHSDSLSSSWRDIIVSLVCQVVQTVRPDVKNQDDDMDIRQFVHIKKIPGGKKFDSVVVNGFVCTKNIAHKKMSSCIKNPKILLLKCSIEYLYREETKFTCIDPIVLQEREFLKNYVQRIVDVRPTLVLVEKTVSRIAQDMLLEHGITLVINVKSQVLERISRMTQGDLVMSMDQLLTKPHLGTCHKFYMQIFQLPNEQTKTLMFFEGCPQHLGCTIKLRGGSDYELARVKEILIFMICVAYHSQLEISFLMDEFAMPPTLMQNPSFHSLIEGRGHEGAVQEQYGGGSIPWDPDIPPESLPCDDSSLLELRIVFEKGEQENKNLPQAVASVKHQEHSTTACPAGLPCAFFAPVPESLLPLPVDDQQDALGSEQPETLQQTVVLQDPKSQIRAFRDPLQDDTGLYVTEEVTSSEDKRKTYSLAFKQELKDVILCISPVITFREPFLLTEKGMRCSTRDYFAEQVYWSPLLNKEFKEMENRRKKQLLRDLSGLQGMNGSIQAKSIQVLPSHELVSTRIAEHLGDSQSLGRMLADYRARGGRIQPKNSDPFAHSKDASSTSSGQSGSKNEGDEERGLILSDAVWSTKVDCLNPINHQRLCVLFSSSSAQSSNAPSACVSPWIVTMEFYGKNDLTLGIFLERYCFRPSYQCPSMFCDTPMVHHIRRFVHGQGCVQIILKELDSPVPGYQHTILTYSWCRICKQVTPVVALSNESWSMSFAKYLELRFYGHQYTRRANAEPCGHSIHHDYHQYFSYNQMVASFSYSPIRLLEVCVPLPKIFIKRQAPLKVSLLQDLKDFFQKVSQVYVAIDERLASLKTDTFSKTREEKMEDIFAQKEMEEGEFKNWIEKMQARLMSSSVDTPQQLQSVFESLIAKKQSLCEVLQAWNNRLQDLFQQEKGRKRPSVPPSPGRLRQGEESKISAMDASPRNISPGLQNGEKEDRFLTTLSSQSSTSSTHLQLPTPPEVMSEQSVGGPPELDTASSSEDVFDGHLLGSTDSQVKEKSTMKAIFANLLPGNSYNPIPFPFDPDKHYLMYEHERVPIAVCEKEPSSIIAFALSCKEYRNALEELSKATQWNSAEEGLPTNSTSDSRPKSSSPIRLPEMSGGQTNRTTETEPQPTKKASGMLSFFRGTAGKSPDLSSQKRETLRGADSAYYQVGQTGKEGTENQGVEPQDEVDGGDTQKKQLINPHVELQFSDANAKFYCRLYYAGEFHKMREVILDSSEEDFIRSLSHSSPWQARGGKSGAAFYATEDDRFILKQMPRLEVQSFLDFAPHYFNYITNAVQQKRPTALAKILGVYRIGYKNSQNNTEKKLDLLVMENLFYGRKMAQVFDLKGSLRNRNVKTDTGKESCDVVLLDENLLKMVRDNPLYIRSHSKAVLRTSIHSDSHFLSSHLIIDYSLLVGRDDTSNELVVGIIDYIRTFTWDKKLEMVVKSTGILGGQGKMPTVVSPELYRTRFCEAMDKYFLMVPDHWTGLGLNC", "assay": "NanoBRET TE Intracellular Kinase Assay, K-8 (Promega) cell-based assay", "settings": "2 hours, read-out: hPIKfyve BRET IC50", "protocol": "NanoBRET™ TE Intracellular Kinase Assay, K-8 (Promega) Cell-Based Assay. Intracellular inhibition of PIKfyve was assayed using Promega's NanoBRET™ TE Intracellular Kinase Assay, K-8 according to manufacturer's instructions. A dilution series of test compounds was added for 2 hours to HEK293 cells transfected for a minimum of 20 hours with PIKFYVE-NanoLuc® Fusion Vector (Promega) containing a full-length PIKfyve according to manufacturer's specifications in a 96-well plate. Kinase activity was detected by addition of a NanoBRET™ tracer reagent, which was a proprietary PIKfyve inhibitor appended to a fluorescent probe (BRET, bioluminescence resonance energy transfer). Test compounds were tested at concentrations of 10, 3, 1, 0.3, 0.1, 0.03, 0.01, 0.003 μM. BRET signals were measured by a GloMax®Discover Multimode Microplate Reader (Promega) using 0.3 sec/well integration time, 450BP donor filter and 600LP acceptor filters. Active test compounds that bound PIKfyve and displaced the tracer reduced BRET signal. IC50 values were then calculated by fitting the data to the normalized BRET ratio."}, "[3]": {"molecular_target": "full-length human PIKFYVE (GST-PIKFYVE) (Homo sapiens (Human), UniProt Q9Y2I7, L932S/Q1183K/Q995L/S1033A/S696N/T998S)", "sequence (Q9Y2I7 whole entry S696N/L932S/Q995L/T998S/S1033A/Q1183K)": "as the sequence (Q9Y2I7 whole entry, the tested form may be a part) above, with S696N, L932S, Q995L, T998S, S1033A, Q1183K counted along it", "assay": "PIKfyve biochemical assay (ADP-Glo Kinase assay, Carna Biosciences)", "settings": "ADP-Glo, full-length human PIKFYVE; read-out: hPIKfyve IC50", "from_the_text": "PIKfyve Biochemical Assay. The biochemical PIKFyve inhibition assays were run by Carna Biosciences according to proprietary methodology based on the Promega ADP-Glo™ Kinase assay. A full-length human PIKFYVE [1-2098(end) amino acids and S696N, L932S, Q995L, T998S, S1033A and Q1183K of the protein having the sequence set forth in NCBI Reference Sequence No. NP_055855.2] was expressed as N-terminal GST-fusion protein (265 kDa) using baculovirus expression system. GST-PIKFYVE was purified by using glutathione sepharose chromatography and used in an ADP-Glo™ Kinase assay (Promega). Reactions were set up by adding the test compound solution, substrate solution, ATP solution and kinase solution, each at 4× final concentrations. Reactions were prepared with assay buffer (50 mM MOPS, 1 mM DTT, pH7.2), mixed, and incubated in black 384 well polystyrene plates for 1 hour at room temperature. ADP-Glo™ reagent was then added for 40 minutes, followed by kinase detection reagent for an additional 40 minutes. The kinase activity was evaluated by detecting relative light units on a luminescence plate reader. Samples were run in duplicate from 10 μM to 3 nM. […] IC50 values were calculated from concentration vs % inhibition curves by fitting to a four-parameter logistic curve.\nThe biochemical PIKFyve inhibition assays were run by Carna Biosciences according to proprietary methodology based on the Promega ADP-Glo™ Kinase assay. A full-length human PIKFYVE [1-2098(end) amino acids and S696N, L932S, Q995L, T998S, S1033A and Q1183K of accession number NP_055855.2] was expressed as N-terminal GST-fusion protein (265 kDa) using baculovirus expression system. GST-PIKFYVE was purified by using glutathione sepharose chromatography and used in an ADP-Glo™ Kinase assay (Promega).\nReactions were set up by adding the test compound solution, substrate solution, ATP solution and kinase solution, each at 4× final concentrations. Reactions were prepared with assay buffer (50 mM MOPS, 1 mM DTT, pH7.2), mixed, and incubated in black 384 well polystyrene plates for 1 hour at room temperature. ADP-Glo™ reagent was then added for 40 minutes, followed by kinase detection reagent for an additional 40 minutes. The kinase activity was evaluated by detecting relative light units on a luminescence plate reader. Samples were run in duplicate from 10 uM to 3 nM. […] IC50 values were calculated from concentration vs % inhibition curves by fitting to a four-parameter logistic curve."}}}
{"smiles": "Cc1cccc(/C=N/Nc2cc(N3CC4CC3CO4)n3nc(-c4ccncc4)cc3n2)c1", "note": "(stereo not drawn)", "values": [{"measurement": "FAB1 TDP-43 (active/inactive)", "setting": "FAB1 TDP-43 yeast strain", "result": "Inactive"}, {"measurement": "PIKfyve TDP-43 (active/inactive)", "setting": "[1]", "result": "Active"}]}
{"smiles": "Cn1c(-c2ccncc2)nc2c(N3CCOCC3)ncnc21", "values": [{"measurement": "FAB1 TDP-43 (active/inactive)", "setting": "FAB1 TDP-43 yeast strain", "result": "Inactive"}, {"measurement": "PIKfyve TDP-43 (active/inactive)", "setting": "[1]", "result": "Inactive"}]}
{"smiles": "CN(C)c1cc(N2CCOCC2)n2nc(-c3ccncc3)cc2n1", "values": [{"measurement": "FAB1 TDP-43 (active/inactive)", "setting": "FAB1 TDP-43 yeast strain", "result": "Inactive"}, {"measurement": "PIKfyve TDP-43 (active/inactive)", "setting": "[1]", "result": "Inactive"}]}
{"smiles": "N#Cc1cc(N2CCOCC2)n2nc(-c3ccncc3)cc2n1", "values": [{"measurement": "FAB1 TDP-43 (active/inactive)", "setting": "FAB1 TDP-43 yeast strain", "result": "Inactive"}, {"measurement": "PIKfyve TDP-43 (active/inactive)", "setting": "[1]", "result": "Inactive"}]}
{"smiles": "Cc1cccc(/C=N/Nc2cc(N3CCOCC3)n3nc(-c4ccncc4)cc3n2)c1", "note": "[APY0201, reference compound]", "values": [{"measurement": "viable cells in FAB1 TDP-43", "setting": "FAB1 TDP-43 yeast strain; range of compound concentrations (only 0.23 μM is shown), FIG. 5", "result": "no increase in viable cells"}, {"measurement": "propidium iodide-positive dead cells in PIKFYVE TDP-43", "setting": "[1]; 0.23 μM, FIG. 6", "result": "reduced the population of propidium iodide-positive dead cells"}]}
{"smiles": "Cc1cccc(-c2cc(O)n(-c3nc(N4CCOCC4)c4ncccc4n3)n2)c1", "note": "[compound 26, 1-(4-morpholinopyrido[3,2-d]pyrimidin-2-yl)-3-m-tolyl-1H-pyrazol-5-ol]", "values": [{"measurement": "IC50", "setting": "[2]", "result": "100 to 1000", "unit": "nM"}, {"measurement": "IC50", "setting": "[3]", "result": "10 to 100", "unit": "nM"}]}
{"smiles": "c1ccc(-c2nccc(-c3nc(N4CCOCC4)c4ncccc4n3)n2)cc1", "note": "[compound 39, 4-(2-(2-phenylpyrimidin-4-yl)pyrido[3,2-d]pyrimidin-4-yl)morpholine]", "values": [{"measurement": "IC50", "setting": "[2]", "result": "100 to 1000", "unit": "nM"}, {"measurement": "IC50", "setting": "[3]", "result": "< 10", "unit": "nM"}]}
{"smiles": "c1ccc(Nc2nc(N3CCOCC3)c3ncc(Cc4cccnc4)cc3n2)cc1", "note": "[compound 79]", "values": [{"measurement": "IC50", "setting": "[2]", "result": "100 to 1000", "unit": "nM"}, {"measurement": "IC50", "setting": "[3]", "result": "100 to 1000", "unit": "nM"}]}
{"smiles": "Cc1cccc(/C=N/Nc2nc(N3CCOCC3)c3ncc(Cc4cccnc4)cc3n2)c1", "note": "[compound 80]", "values": [{"measurement": "IC50", "setting": "[2]", "result": "10 to 100", "unit": "nM"}, {"measurement": "IC50", "setting": "[3]", "result": "10 to 100", "unit": "nM"}]}
{"smiles": "Cc1cccc(-c2cc(O)n(-c3nc(N4CCOCC4)c4ncc(Cc5cccnc5)cc4n3)n2)c1", "note": "[compound 81]", "values": [{"measurement": "IC50", "setting": "[2]", "result": "100 to 1000", "unit": "nM"}, {"measurement": "IC50", "setting": "[3]", "result": "10 to 100", "unit": "nM"}]}
{"smiles": "Cc1cccc(/C=N/Nc2cc(N3CCOCC3)n3nc(-c4ccncc4)cc3n2)c1", "note": "[drawing 292]", "values": [{"measurement": "FAB1 TDP-43 (active/inactive)", "setting": "FAB1 TDP-43 yeast strain", "result": "Inactive"}, {"measurement": "PIKfyve TDP-43 (active/inactive)", "setting": "[1]", "result": "Active"}]}
{"smiles": "Cc1cccc(/C=N/Nc2nc(N3CCOCC3)c3nc(-c4ccncc4)n(C)c3n2)c1", "note": "[drawing 294]", "values": [{"measurement": "FAB1 TDP-43 (active/inactive)", "setting": "FAB1 TDP-43 yeast strain", "result": "Inactive"}, {"measurement": "PIKfyve TDP-43 (active/inactive)", "setting": "[1]", "result": "Active"}]}
